The values that follow come from patent US20160061841A1, “NRF2-BASED CANCER TREATMENT AND DETECTION METHODS AND USES” (CanBas Co., Ltd., priority 2014, published 2016).

Entries after “also recorded” stand apart in the source; their conditions may differ. Read-outs that look alike come from different tables or passages of the source.

The test system of one experiment is Nrf2. The conditions noted are these: Western blot. In general terms: Immunoblotting shows a protein as a band on a membrane.
For experiment [1], the system named is H1703 Control (Ctrl)-sh and Nrf2-sh sub-lines. Description: Cell cycle distribution after SFN, CDDP and CBP501 in H1703 Ctrl-sh and Nrf2-sh sub-lines. The note with it: SFN 24 h prior to 1 h CDDP (2.5 μg/ml)/CBP501 (1 μM). It counts as cell-based, Human. The procedure: FIGS. 4C, 4D show Analysis of cell cycle distribution changes by using Flow-cytometry (n=4). SFN was subjected 24h to H1703 Control (Ctrl)-sh and Nrf2-sh sub-lines prior to lh treatment of CDDP (2.5 μg/m1)/CBP501 (1 μM). (FIG. 4C) Whole cell cycle distribution. (FIG. 4D) G2-M phase. An asterisk indicates statistical significance (TTEST; p<0.005). Error bars signify standard deviations as determined from four flowcytometric analyses.
Cell cycle analysis. Cells were plated in 24-well plates and incubated for 24 hours. The cells were treated with or without CDDP plus or minus CBP501 at the indicated concentration for the indicated times. The cells were harvested and stained with Krishan's solution (0.1% sodium citrate, 50 μg/ml propidium iodide, 20 μg/ml RNase A, 0.5% NP-40). Stained cells were analyzed by FACSCalibur (Becton Dickinson, Franklin Lakes, N.J.) using CELLQuest software (Becton Dickinson).
Lentivirus infection. Nrf2 shRNA lentivirus particles and Control shRNA lentivirus particles were purchased from SantaCruz. Lentivirus infection was performed according to manufacturer's instructions. Cells (50% confluence) were treated with 5 μg/ml Polybrene (SantaCruz) prior to virus infection. One day after addition of virus, the cells were transferred to fresh medium and cells were selected by treatment with Puromycin (SantaCruz). […]

Take `C[S+]([O-])CCCCN=C=S` (stereo not shown) [SFN, Sulforaphane]: the Nrf2 protein levels entry in the experiment on Nrf2 (H1703 cells transfected with Nrf2 shRNA) was “did not cause a similar increase”; with Nrf2 (H1703 cells transfected with control shRNA) it was “increase in a dose dependent manner”. Moreover, the “Effect of SFN on CBP501's effect (cell cycle distribution, G2-M)” value was “the effect of SFN was abrogated” in experiment [1] (H1703 Nrf2 knock-down) and “attenuated CBP501's effect; also recorded: cancels the effect of CBP501” in experiment [1] (H1703 control shRNA).
